Reference: ChEMBL document CHEMBL5500342, “Rational molecular design converting fascaplysin derivatives to potent broad-spectrum inhibitors against bacterial pathogens via targeting FtsZ” (Eur J Med Chem, 2024)
The source made the active and inactive calls. The rule behind the calls is not given here.

Key:
Staphylococcus aureus [1] = experiment: Antibacterial activity against methicillin-resistant Staphylococcus aureus ATCC43300 assessed as inhibition of bacterial growth incubated for 18 hrs by CLSI protocol based microbroth dilution method; format: functional
Streptococcus pneumoniae = experiment: Antibacterial activity against Streptococcus pneumoniae ATCC49619 assessed as inhibition of bacterial growth incubated for 18 hrs by CLSI protocol based microbroth dilution method; format: functional
Salmonella enteritidis = experiment: Antibacterial activity against Salmonella enteritidis BNCC281091 assessed as inhibition of bacterial growth incubated for 18 hrs by CLSI protocol based microbroth dilution method; format: functional, Salmonella enterica subsp. enterica serovar Enteritidis; settings: Salmonella enterica
Pseudomonas aeruginosa = experiment: Antibacterial activity against Pseudomonas aeruginosa BNCC337940 assessed as inhibition of bacterial growth incubated for 18 hrs by CLSI protocol based microbroth dilution method; format: functional
Escherichia coli = experiment: Bactericidal activity against penicillin-susceptible Escherichia coli ATCC25922 incubated for 24 hrs by CLSI protocol based microbroth dilution method; format: functional
[2] = Selectivity ratio of MBC for bactericidal activity against penicillin-susceptible Escherichia coli ATCC25922 to MIC for antibacterial activity against penicillin-susceptible Escherichia coli ATCC25922; format: functional
Staphylococcus aureus [3] = experiment: Antibacterial activity against methicillin-resistant Staphylococcus aureus ATCC43300 assessed as reduction in bacterial count at 1 times of MIC incubated for 24 hrs by time kill kinetics assay; format: functional, organism-based
Staphylococcus aureus [4] = experiment: Antibacterial activity against methicillin-resistant Staphylococcus aureus ATCC43300 assessed as reduction in bacterial count at 2 times of MIC incubated for 24 hrs by time kill kinetics assay; format: functional, organism-based
Staphylococcus aureus [5] = experiment: Antibacterial activity against methicillin-resistant Staphylococcus aureus ATCC43300 assessed as reduction in bacterial count at 4 times of MIC incubated for 24 hrs by time kill kinetics assay; format: functional, organism-based
Staphylococcus aureus [6] = experiment: Antibacterial activity against methicillin-resistant Staphylococcus aureus ATCC43300 assessed as log reduction in bacterial count measured within 0.5 hrs by time kill kinetics assay; format: functional
Staphylococcus aureus [7] = experiment: Antibacterial activity against methicillin-resistant Staphylococcus aureus ATCC43300 at assessed as reduction in bacterial growth at 0.5 times of MIC incubated for 18 to 24 hrs and measured after 25 passages by drug resistance assay; format: functional, organism-based
Cell membrane [8] = experiment: Disruption of cell membrane integrity in methicillin-resistant Staphylococcus aureus ATCC43300 assessed as appearance of sunken fine microstructures at 4 times of MIC incubated for 2 hrs by scanning electron microscopic analysis; format: cell membranes
Cell membrane [9] = experiment: Disruption of cell membrane integrity in penicillin-susceptible Escherichia coli ATCC25922 assessed as cell deformation at 4 times of MIC incubated for 2 hrs by transmission electron microscopic analysis; format: cell membranes
Bacillus subtilis = experiment: Induction of morphological changes in Bacillus subtilis BNCC336690 assessed as cell elongation by measuring cell length at 0.5 times of MIC incubated for 4 hrs by optical microscopic analysis; format: functional
Staphylococcus aureus [10] = experiment: Induction of morphological changes in methicillin-resistant Staphylococcus aureus ATCC43300 assessed as swelling at 0.5 times of MIC incubated for 4 hrs by optical microscopic analysis; format: functional, organism-based
[11] = target: T1, Cell division protein FtsZ (Staphylococcus aureus) (UniProt P0A031); experiment: Induction of recombinant FtsZ polymerization in methicillin-resistant Staphylococcus aureus ATCC43300 assessed as bundling of FtsZ protofilaments at 1 to 4 microg/ml measured within 5 mins by light scattering assay; settings: filed as activator, dose 1-4 µg/ml
T1 sequence (whole entry): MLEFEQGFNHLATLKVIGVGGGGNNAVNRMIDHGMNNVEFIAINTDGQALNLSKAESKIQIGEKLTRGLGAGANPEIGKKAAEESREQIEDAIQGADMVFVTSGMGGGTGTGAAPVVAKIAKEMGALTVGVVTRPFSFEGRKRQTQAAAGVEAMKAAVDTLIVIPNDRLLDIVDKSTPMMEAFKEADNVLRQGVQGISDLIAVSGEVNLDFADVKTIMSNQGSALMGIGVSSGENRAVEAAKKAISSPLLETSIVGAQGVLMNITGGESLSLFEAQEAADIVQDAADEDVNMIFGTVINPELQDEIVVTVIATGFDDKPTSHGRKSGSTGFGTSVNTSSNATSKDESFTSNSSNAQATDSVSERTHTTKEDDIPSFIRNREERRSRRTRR

[12] = target: T1, Cell division protein FtsZ (Staphylococcus aureus); experiment: Induction of recombinant FtsZ polymerization in methicillin-resistant Staphylococcus aureus ATCC43300 assessed as bundling of FtsZ protofilaments by measuring fold increase in maximal intensity at 4 microg/ml measured after 10 mins by light scattering assay; settings: filed as activator, dose 4.0 µg/ml
[13] = target: T2, Cell division protein FtsZ (Escherichia coli K-12) (UniProt P0A9A6); experiment: Induction of recombinant FtsZ polymerization in penicillin-susceptible Escherichia coli ATCC25922 assessed as bundling of FtsZ protofilaments at 1 to 4 microg/ml incubated for 10 mins by light scattering assay; settings: filed as activator, dose 1-4 µg/ml
T2 sequence (whole entry): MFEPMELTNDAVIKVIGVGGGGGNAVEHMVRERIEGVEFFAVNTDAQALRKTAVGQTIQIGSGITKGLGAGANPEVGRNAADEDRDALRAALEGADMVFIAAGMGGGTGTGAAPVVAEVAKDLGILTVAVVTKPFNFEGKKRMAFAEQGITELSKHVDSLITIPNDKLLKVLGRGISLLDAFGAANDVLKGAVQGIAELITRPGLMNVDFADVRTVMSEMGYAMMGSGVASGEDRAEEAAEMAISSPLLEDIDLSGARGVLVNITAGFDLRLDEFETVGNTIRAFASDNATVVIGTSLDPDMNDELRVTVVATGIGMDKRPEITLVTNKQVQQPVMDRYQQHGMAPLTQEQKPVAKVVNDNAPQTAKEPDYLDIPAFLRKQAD

[14] = target: T2, Cell division protein FtsZ (Escherichia coli K-12); experiment: Induction of recombinant FtsZ polymerization in penicillin-susceptible Escherichia coli ATCC25922 assessed as stabilization of FtsZ bundles at 1 to 4 microg/ml incubated for 10 mins by light scattering assay; settings: filed as activator, dose 1-4 µg/ml
[15] = target: T1, Cell division protein FtsZ (Staphylococcus aureus); experiment: Induction of FtsZ polymerization in methicillin-resistant Staphylococcus aureus ATCC43300 assessed as increase in thickness of assembly at 4 microg/ml preincubated for 10 mins followed by GTP addition and measured after 15 mins by transmission electron microscopic analysis; settings: filed as activator, dose 4.0 µg/ml, time 25.0 min
[16] = target: T2, Cell division protein FtsZ (Escherichia coli K-12); experiment: Induction of FtsZ polymerization in penicillin-susceptible Escherichia coli ATCC25922 assessed as bundling of FtsZ protofilaments at 4 microg/ml preincubated for 10 mins followed by GTP addition and measured after 15 mins by transmission electron microscopic analysis; settings: filed as activator, dose 4.0 µg/ml, time 25.0 min
[17] = target: T2, Cell division protein FtsZ (Escherichia coli K-12); experiment: Induction of FtsZ polymerization in penicillin-susceptible Escherichia coli ATCC25922 assessed as larger bundles at 4 microg/ml preincubated for 10 mins followed by GTP addition and measured after 15 mins by transmission electron microscopic analysis; settings: filed as activator, dose 4.0 µg/ml, time 25.0 min
[18] = target: T1, Cell division protein FtsZ (Staphylococcus aureus); experiment: Effect on FtsZ GTPase activity in methicillin-resistant Staphylococcus aureus ATCC43300 upto 8 microg/ml incubated for 30 mins by malachite green phosphate based assay; settings: dose <= 8.0 µg/ml
Staphylococcus aureus [19] = experiment: Inhibition of biofilm formation in methicillin-resistant Staphylococcus aureus ATCC43300 incubated for 24 hrs by crystal violet staining based analysis; format: functional, organism-based; settings: dose 0.78-100 µg/ml

SMILES | MIC (Staphylococcus aureus [1]) [µg/mL] | MIC (Streptococcus pneumoniae) [µg/mL] | MIC (Salmonella enteritidis) [µg/mL] | MIC (Pseudomonas aeruginosa) [µg/mL] | MBC (Escherichia coli) [µg/mL] | Selectivity ratio [2] | Activity (Staphylococcus aureus [3]) | Activity (Staphylococcus aureus [4]) | Activity (Staphylococcus aureus [5]) | Activity (Staphylococcus aureus [6]) [log10CFU/ml] | Activity (Staphylococcus aureus [7]) | Activity (Cell membrane [8]) | Activity (Cell membrane [9]) | Activity (Bacillus subtilis) [um] | Activity (Staphylococcus aureus [10]) | Activity [11] | fold change (FC) [12] | Activity [13] | Activity [14] | Activity [15] | also measured
O=C1c2ccccc2-[n+]2ccc3c([nH]c4ccc(-c5ccccc5F)cc43)c21.[Cl-] | 0.195 | 0.195 | 12.5 | > 200 | 6.25 | 1 | Active | Active | Active | >3 | Active | Active | Active | >50 | Active | Active | 2 | Active | Active | Active | Activity [16]: Active; Activity [17]: Active; Activity [18]: inactive; inhibition (Staphylococcus aureus [19]): Dose-Dependent Effect
O=C1c2ccccc2-[n+]2ccc3c([nH]c4ccc(-c5ccccc5Cl)cc43)c21.[Cl-] | 1.56 | 0.195 | 50 | > 200 | 50 | 4 | Active | Active | Active | >3 | Active | Active | Active | >50 | Active | Active | 2 | Active | Active | Active | Activity [16]: Active; Activity [17]: Active; Activity [18]: inactive; inhibition (Staphylococcus aureus [19]): Dose-Dependent Effect
O=C1c2ccccc2-[n+]2ccc3c([nH]c4ccc(-c5ccccc5C(F)(F)F)cc43)c21.[Cl-] | 1.56 | 0.195 | 12.5 | > 200 | 50 | 4 | Active | Active | Active | >3 | Active | Active | Active | >50 | Active | Active | 2 | Active | Active | Active | Activity [16]: Active; Activity [17]: Active; Activity [18]: inactive; inhibition (Staphylococcus aureus [19]): Dose-Dependent Effect
